In US5409933A, “Quinoline derivatives and processes for preparing the same” (priority 1993, dated 1995):
Structures can show the parent of a compound that is named as a salt. Where two headings read alike, the source gives them in different places.

Columns and labels:
S. aureus 17740 = assay: Treatment Effect on the Systemic Infection; type: in vivo, NMRI mice; conditions: Staphylococcus aureus, in Mus musculus, 240 h, S. aureus 17740, immediately and 4 hours after infection, survival on 10th day
Description: (§1) 10 fold of the pathogens which lead to 100% lethality were injected intraperitoneally to male and female NMRI mice weighing 18 to 20 g. Immediately and 4 hours after injection, the dose of test compounds, which was determined by two-fold serial dilution method, was administered orally or subcutaneously to the mice, and on the 10th day, the effect was evaluated in terms of ED50 calculated from the number of survived mice by the probit analysis.

P. mirabilis = assay: Treatment Effect on the Systemic Infection; type: in vivo, NMRI mice; conditions: Proteus mirabilis, in Mus musculus, 240 h, P. mirabilis, immediately and 4 hours after infection, survival on 10th day
Description: as §1

[1] = tested on: Pseudomonas aeruginosa 9027; assay: In Vitro Anti-Bacterial Activity Test (MIC, agar dilution); type: cell-based; conditions: Muller-Hinton agar, 37° C., 18 hours, read-out: MIC
Procedure, shortened: (§2)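 Compounds were diluted into Muller-Hinton agar plates, which were inoculated with 10^7 C.F.U./ml of each strain. Plates were kept at 37° C. for 18 hours before growth was read.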

Escherichia coli DC2 = assay: as above; type: cell-based; conditions: Escherichia coli, DC2, 18 h
Procedure, shortened: as §2

[2] = tested on: Streptococcus faecium MD8b; assay: as above; type: cell-based; conditions: Enterococcus faecium, Muller-Hinton agar, 37° C., 18 hours, read-out: MIC
Procedure, shortened: as §2

Escherichia coli 078 = assay: as above; type: cell-based
Procedure, shortened: as §2

[3] = tested on: Streptococcus pyogenes 308A; assay: as above; type: cell-based; conditions: Muller-Hinton agar, 37° C., 18 hours, read-out: MIC
Procedure, shortened: as §2

Escherichia coli 1507E = assay: as above; type: cell-based; conditions: Muller-Hinton agar, 37° C.
Procedure, shortened: as §2

[4] = tested on: Pseudomonas aeruginosa 1592E; assay: as above; type: cell-based; conditions: Muller-Hinton agar, 37° C., 18 hours, read-out: MIC
Procedure, shortened: as §2

[5] = tested on: Staphylococcus aureus 285; assay: as above; type: cell-based; conditions: Staphylococcus aureus, 285, 18 h, Staphylococcus aureus 285; Muller-Hinton agar, 37° C., 18 hours; read-out: MIC
Procedure, shortened: as §2

Enterobacter cloacae P99 = assay: as above; type: cell-based; conditions: Enterobacter cloacae, P99, 18 h
Procedure, shortened: (§3)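 Agar-incorporation MIC: Muller-Hinton medium, 10^7 C.F.U./ml inoculum, 18 h incubation at 37° C., growth checked by eye; ciprofloxacin reference.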

Escherichia coli DC0 = assay: as above; type: cell-based; conditions: Muller-Hinton agar, 37° C., 18 hours, read-out: MIC
Procedure, shortened: as §2

[6] = tested on: Staphylococcus aureus SG511; assay: as above; type: cell-based; conditions: Staphylococcus aureus SG511; Muller-Hinton agar, 37° C., 18 hours; read-out: MIC
Procedure, shortened: as §2

[7] = tested on: Klebsiella aerogenes 1522E; assay: as above; type: cell-based; conditions: Klebsiella aerogenes, 1522E, 18 h, Klebsiella aerogenes 1522E; Muller-Hinton agar, 37° C., 18 hours; read-out: MIC
Procedure, shortened: as §2

[8] = tested on: Streptococcus pyogenes 77A; assay: as above; type: cell-based
Procedure, shortened: as §2

Klebsiella oxytoca 1082E = assay: as above; type: cell-based; conditions: Klebsiella oxytoca 1082E; Muller-Hinton agar, 37° C., 18 hours; read-out: MIC
Procedure, shortened: as §2

Salmonella typhimurium = assay: as above; type: cell-based; conditions: Salmonella enterica; Salmonella typhimurium; Muller-Hinton agar, 37° C., 18 hours; read-out: MIC
Procedure, shortened: as §2

Escherichia coli TEM = assay: as above; type: cell-based; conditions: Escherichia coli, 18 h, Muller-Hinton agar, 37° C.
Procedure, shortened: as §3

[9] = tested on: Pseudomonas aeruginosa 1771M; assay: as above; type: cell-based; conditions: Pseudomonas aeruginosa, 1771M, 18 h, Muller-Hinton agar, 37° C.
Procedure, shortened: as §2

[10] = tested on: Staphylococcus aureus 503; assay: as above; type: cell-based; conditions: Staphylococcus aureus 503; Muller-Hinton agar, 37° C., 18 hours; read-out: MIC
Procedure, shortened: as §2

[11] = tested on: Pseudomonas aeruginosa 1771; assay: as above; type: cell-based; conditions: Pseudomonas aeruginosa 1771; Muller-Hinton agar, 37° C., 18 hours; read-out: MIC
Procedure, shortened: as §2

[12] = tested on: Enterobacter cloacae 1321E; assay: as above; type: cell-based; conditions: Enterobacter cloacae 1321E; Muller-Hinton agar, 37° C., 18 hours; read-out: MIC
Procedure, shortened: as §2

[13] = oral, read-out: ED50 Oral Administration
[14] = sc, subcutaneous, read-out: ED50 Subcutaneous Injection
[15] = Escherichia coli 078, Muller-Hinton agar, 37° C., 18 hours, read-out: MIC
[16] = Streptococcus pyogenes, 77A, 18 h

Compound | MIC [1] [µg/mL] | MIC (Escherichia coli DC2) [µg/mL] | MIC [2] [µg/mL] | MIC (Escherichia coli 078; [15]) [µg/mL] | MIC [3] [µg/mL] | MIC (Escherichia coli 1507E; Escherichia coli, 1507E, 18 h) [µg/mL] | MIC [4] [µg/mL] | MIC [5] [µg/mL] | MIC (Enterobacter cloacae P99) [µg/mL] | MIC (Escherichia coli DC0) [µg/mL] | MIC [6] [µg/mL] | MIC [7] [µg/mL] | MIC (Klebsiella oxytoca 1082E) [µg/mL] | MIC (Salmonella typhimurium) [µg/mL] | MIC (Escherichia coli TEM) [µg/mL] | MIC [9] [µg/mL] | MIC [10] [µg/mL] | MIC [11] [µg/mL] | MIC [12] [µg/mL] | MIC [8, 16] [µg/mL] | further results
CC1COc2c(N3CCN(C)CC3)c(F)cc3c(=O)c(C(=O)O)cn1c23 (stereo not shown) [Ofloxacin, reference compound] |  |  |  |  |  |  |  |  |  |  |  |  |  |  |  |  |  |  |  |  | ED50 (S. aureus 17740; [13]): > 200 mg/kg; ED50 (S. aureus 17740; [14]): 200 mg/kg; ED50 (P. mirabilis; [13]): 1.64 mg/kg; ED50 (P. mirabilis; [14]): 0.33 mg/kg
CNCC1=CCN(c2c(F)cc3c(=O)c(C(=O)C[N+](=O)[O-])cn(C4CC4)c3c2F)C1 [Example 15, 1-cyclopropyl-6,8-difluoro-7-(3-methylaminomethyl-2,5-dihydropyrrol-1-yl)-3-(2-nitroacetyl)-1,4-dihydro-4-oxoquinoline hydrochloride] | 0.781 | 0.013 | 0.025 | < 0.002 | 0.049 | 0.007 | 0.391 | 0.004 | 0.004 | 0.098 | < 0.002 | 0.013 | < 0.002 | < 0.002 | 0.004 | 0.195 | < 0.002 | 0.391 | < 0.002 |  | MIC ([8]; Streptococcus pyogenes 77A, Muller-Hinton agar, 37° C., 18 hours, read-out: MIC): 0.025 µg/mL
CCOC(=O)C(C(=O)OCC)C(=O)c1cn(C2CC2)c2c(Cl)c(N3CCC(N)C3)c(F)cc2c1=O (stereo not shown) [Example 22, 1-cyclopropyl-6-fluoro-8-chloro-7-(3-aminopyrrolidin-1-yl)-3-(2,2-diethoxycarbonylacetyl)-1,4-dihydro-4-oxoquinoline hydrochloride] | 0.781 | 0.025 | 0.391 | 0.004 | 0.391 |  | 0.781 | 0.098 | 0.004 | 0.098 | 0.049 | 0.025 | < 0.002 | 0.004 | < 0.002 | 0.195 | 0.049 | 0.781 | < 0.002 | 0.781 | MIC (Escherichia coli 1507E; 18 hours, read-out: MIC): < 0.002 µg/mL
CCOC(=O)C(C(=O)OCC)C(=O)c1cn(C2CC2)c2c(OC)c(N3CCC(NC)C3)c(F)cc2c1=O (stereo not shown) [Example 60, 1-cyclopropyl-6-fluoro-8-methoxy-7-(3-methylaminopyrrolidin-1-yl)-3-(2,2-diethoxycarbonylacetyl)-1,4-dihydro-4-oxoquinoline hydrochloride] | 1.56 | 0.098 | 0.781 |  | 1.56 | 0.195 | 1.56 | 0.195 | 0.098 | 0.781 | 0.195 | 0.195 | 0.013 | 0.098 | 0.098 | 0.781 | 0.098 | 1.56 | 0.098 | 0.781 | MIC (Escherichia coli 078; Escherichia coli, 078, 18 h): 0.098 µg/mL
